From article PMC4350841 (2015)

Experiments:
[1] = system: U-insertion gRNA/pre-mRNA hybrid RNA (pre-cleaved) (RNA, duplex, 3'-end amino modification in two of the oligoribonucleotides used (which ones stated only in S1 Table)) GGAAGUAUGAGACGUAGG/AUUGGAGUUAUAG/CUAUAACUCCGAUAAACCUACGUCUCAUACUUCC; assay: UV melting, 260 nm; details: Na+ (5 mM Na cacodylate; NaCl not stated); pH 6.8; 1 μM RNA; neomycin 1.3 μM or 13 μM; two helices; 11–13 over both RNAs
[2] = system: U-deletion gRNA/pre-mRNA hybrid RNA (pre-cleaved) (RNA, duplex, 3'-end amino modification in two of the oligoribonucleotides used (which ones stated only in S1 Table)) GGAAAGGGAAAGUUGUGAUUUU/GCGAGUUAUAGAAUA/GGUUCUAUAACUCGCUCACAACUUUCCCUUUCC; assay: UV melting, 260 nm; details: Na+ (5 mM Na cacodylate; NaCl not stated); pH 6.8; 1 μM RNA; neomycin 1.3 μM or 13 μM; two helices; 11–13 over both RNAs
[3] = system: U-insertion gRNA/pre-mRNA hybrid RNA (pre-cleaved) (RNA, duplex, 3'-end amino modification in two of the oligoribonucleotides used (which ones stated only in S1 Table)) GGAAGUAUGAGACGUAGG/AUUGGAGUUAUAG/CUAUAACUCCGAUAAACCUACGUCUCAUACUUCC; assay: isothermal titration calorimetry; details: 30 mM KCl, 10 mM Mg(OAc)2; 20 mM HEPES/KOH pH 7.5, 0.5 mM DTT, 27°C; 2 μM RNA; macroscopic, 3 sites
[4] = system: U-deletion gRNA/pre-mRNA hybrid RNA (pre-cleaved) (RNA, duplex, 3'-end amino modification in two of the oligoribonucleotides used (which ones stated only in S1 Table)) GGAAAGGGAAAGUUGUGAUUUU/GCGAGUUAUAGAAUA/GGUUCUAUAACUCGCUCACAACUUUCCCUUUCC; assay: isothermal titration calorimetry; details: 30 mM KCl, 10 mM Mg(OAc)2; 20 mM HEPES/KOH pH 7.5, 0.5 mM DTT, 27°C; 2 μM RNA; macroscopic, 3 sites
[5] = system: U-insertion gRNA/pre-mRNA hybrid RNA (pre-cleaved) (RNA, duplex, 3'-end amino modification in two of the oligoribonucleotides used (which ones stated only in S1 Table)) GGAAGUAUGAGACGUAGG/AUUGGAGUUAUAG/CUAUAACUCCGAUAAACCUACGUCUCAUACUUCC; assay: circular dichroism titration, 273 nm; details: Na+ (65 mM NaCl, 10 mM Na cacodylate); pH 6.8, 27°C; 12 μM RNA; neomycin up to 0.6 mM; A-form retained
[6] = system: U-deletion gRNA/pre-mRNA hybrid RNA (pre-cleaved) (RNA, duplex, 3'-end amino modification in two of the oligoribonucleotides used (which ones stated only in S1 Table)) GGAAAGGGAAAGUUGUGAUUUU/GCGAGUUAUAGAAUA/GGUUCUAUAACUCGCUCACAACUUUCCCUUUCC; assay: circular dichroism titration, 273 nm; details: Na+ (65 mM NaCl, 10 mM Na cacodylate); pH 6.8, 27°C; 12 μM RNA; neomycin up to 0.6 mM; A-form retained

binding [1]: yes | binding [2]: yes | Kd [3]: 1100 nM | Kd [4]: 1000 nM | binding [5]: yes | binding [6]: yes
Compound: NC[C@@H]1O[C@H](O[C@H]2[C@@H](O)[C@H](O[C@@H]3[C@@H](O)[C@H](N)C[C@H](N)[C@H]3O[C@H]3O[C@H](CN)[C@@H](O)[C@H](O)[C@H]3N)O[C@@H]2CO)[C@H](N)[C@@H](O)[C@@H]1O
